pIC50: −log10 of the molar value.
Target: T1, JMJD2A (Homo sapiens, UniProt O75164)
T1 construct: pNIC28-Bsa4 JMJD2A (encompassing residues 1-359); inferred from Ni-NTA purification and the pNIC28-Bsa4 vector; made in house; host or cells: E. coli BL21 (DE3) Rosetta T1R
T1 sequence (O75164 1-359): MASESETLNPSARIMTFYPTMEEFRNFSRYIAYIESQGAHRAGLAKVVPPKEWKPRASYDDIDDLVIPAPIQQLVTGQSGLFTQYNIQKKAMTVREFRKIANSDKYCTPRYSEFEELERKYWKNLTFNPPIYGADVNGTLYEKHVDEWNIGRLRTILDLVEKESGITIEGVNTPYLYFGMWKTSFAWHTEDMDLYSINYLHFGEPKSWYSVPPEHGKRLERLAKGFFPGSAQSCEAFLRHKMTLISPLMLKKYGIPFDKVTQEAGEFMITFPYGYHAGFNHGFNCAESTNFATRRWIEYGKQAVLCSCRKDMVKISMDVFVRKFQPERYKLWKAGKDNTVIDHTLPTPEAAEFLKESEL
Experiment: MALDI-based inhibition assay for JMJD2A
Assay type: biochemical
Conditions: ARK(me3)STGGK substrate
Description: min, before 1:1 quenching with methanol. 1 uL of the diluted assay mixture was then mixed with 1 uL of α-cyano-4-hydroxycinnamic acid (CHCA, the MALDI-TOF-MS matrix, Sigma-Aldrich) and spotted onto the MALDI-TOF-MS plate before analysis. The CHCA matrix consisted of 10 mg/mL CHCA in 50% MeCN/Milli-Q H2O containing 0.1% TFA. The percentage inhibition was estimated based on the relative intensities of the unhydroxylated substrate and the hydroxylated product observed in the mass spectra. For IC50 determination, eight different concentrations of inhibitors were used (0, 1, 3, 10, 30, 100, 300, 1000 µM); the IC50s were then calculated from the variation in percentage hydroxylation at different inhibitor concentrations, using nonlinear regression, with normalized dose-response fit on […]
MALDI-based inhibition assay for JMJD2A
The assay was performed as previously reported, with modifications.[20] A peptide substrate with the sequence ARK(me3)STGGK (GL Biochem (Shanghai) Ltd) was used in this inhibition assay. The assay was performed in triplicate for each inhibitor, in a final reaction volume of 25 µL. […]
IC50s were then calculated from the variation in percentage demethylation at different

Compound `O=C(O)/C=C/C(=O)NNC(=O)c1cnccc1Cc1ccccc1` [Compound 12] has a pIC50 of under 3.52.

Source: PMC5424463, “A strategy based on nucleotide specificity leads to a subfamily-selective and cell-active inhibitor of N ^6-methyladenosine demethylase FTO” (Chemical Science, 2014)
